What was measured:
CSF1R [1] = target: T1, CSF1R (Homo sapiens (Human), UniProt P07333); experiment: In vitro kinase panel (SelectScreen); assay type: biochemical
Description: (§2) In vitro kinase screen and competitive binding assay. […] 11-point Kd curves were determined for hits identified during the initial screen.

BRAF [2] = target: T2, BRAF (Homo sapiens (Human), UniProt P15056); experiment: In vitro kinase panel (SelectScreen); assay type: biochemical
Description: as §2

neointimal hyperplasia = experiment: Mouse carotid artery wire-injury model of neointimal hyperplasia; assay type: in vivo, mice
Description: (FIG. 11A) Mouse carotid arteries were wire-injured as described in the Methods. […] (FIG. 11C) The corresponding percent stenosis (reflecting luminal narrowing) was calculated as described herein, *p<0.01. Error bars are reported as ±SEM. (FIG. 11D) PDGFRβ autophosphorylation in the injured arteries was measured on day 14, 4 h post-dose.
Restenosis is a process that commonly results from balloon angioplasty and/or stent placement resulting in eventual occlusion of arteries by a process described as neointimal hyperplasia (NIH). […] Therefore, the combination of PDGFRβ/B-RAF inhibition would be an ideal treatment for NIH. […] Mouse carotid arteries were wire-injured and treated the following day with 100 mg/kg, qd, via oral gavage. Representative sections of the injured arteries, stained with hematoxylin and eosin (FIG. 11A), were used to calculate the intimal/medial ratio—a measurement of the thickness of the inner two layers of the artery wall, which correlates with the size of the vessel lumen. […] As a pharmacodynamic endpoint, representative arteries were excised 4 h after the final dose and lysates were immunoblotted to detect activated PDGFRβ.

CT26 = experiment: Tumor cell viability; assay type: cell-based; details: Colon Carcinoma CT26
Description: (§1) For XTT assays, cells were grown in 96-well plates overnight and all assays were conducted in growth medium will full serum and additives. Compounds were serially diluted in DMSO and then further diluted into the medium to give the appropriate concentration while minimizing precipitation associated with serial diluting in medium alone Inhibitors were added for 72 h and cell viability was quantified at 450 nm after the addition of 1 mg/ml XTT solution (Sigma-Aldrich) in phenol-red free DMEM medium containing […] (Sigma-Aldrich). Dose-response curves were plotted using GraphPad Prism software and EC50s were calculated using this program.

A431 = experiment: Tumor cell viability; assay type: cell-based; details: Epithelial Carcinoma A431, HER1
Description: as §1

M21L = experiment: Tumor cell viability; assay type: cell-based; details: Melanoma M21L
Description: as §1

M21 = experiment: Tumor cell viability; assay type: cell-based; details: Melanoma M21
Description: as §1

CDC2L1 = CDC2L1 (Homo sapiens (Human), UniProt P21127); experiment: KINOMEscan competitive binding assay; details: 10 uM
MEK S298 = experiment: PAK-mediated MEK S298 phosphorylation in endothelial cells; assay type: cell-based, human; details: HUVECs stimulated with bFGF or VEGF, 5 μM
Description: FIG. 1A-1F illustrate molecular modeling and assay screening to compounds for dual targeting of PDGFRβ and RAF. (FIG. 1A) Molecular modeling of the amino-triazole based small molecules in PDGFRβ and RAF, respectively. […] A homology model of PDGFRβ was created with a structurally-related family member (VEGFR2, PDB 1y6b). […] To autophosphorylation, immunoblots were carried out with a phospho-tyrosine antibody. Membranes were stripped and reprobed for total PDGFRβ levels. […] (FIG. 1D) Structure activity relationships of the amino-triazole based small molecules comparing both PDGFRβ and B-RAF. […] Curves represent the average of 3 separate experiments, error bars represent ±SEM.
Following stimulation with bFGF, VEGFA or PDGF-BB, cells were washed 1× with ice-cold PBS and lysed in RIPA buffer. For the PDGFRβ autophosphorylation assay in VSMCs, 500 μg of protein from lysates was incubated with 3 μg of anti-PDGFRβ (sc-432, Santa Cruz Biotechnology) for 1 h at 4° C. and subsequently tumbled overnight with protein A/G beads (Pierce) for immunoprecipitation. […] HRP conjugated primary or secondary Abs were detected with SuperSignal ECL (Pierce). […]

BRAF [3] = target: T2, BRAF; experiment: KINOMEscan competitive binding assay; details: 10 uM
Description: (§3) For the competitive binding assay, test compounds were screened at 10 μM against 70 diverse kinase targets for competitive binding using the KINOMEscan™ technology (Ambit Biosciences) (Karaman, et al. (2008) Nature biotechnology 26:127-132). 11-point Kd curves were determined for hits identified during the initial screen.

NCI60 panel = NCI60 panel growth inhibition; assay type: cell-based; details: average across NCI60 panel; read-out: average growth inhibitory concentration (GI50)
VEGFR2 = VEGFR2 (Homo sapiens (Human), UniProt P35968); experiment: KINOMEscan competitive binding assay; details: 10 uM
Description: In vitro kinase screen and competitive binding assay. […] For the competitive binding assay, test compounds were screened at 10 μM against 70 diverse kinase targets for competitive binding using the KINOMEscan™ technology (Ambit Biosciences) (Karaman, et al. (2008) Nature biotechnology 26:127-132). 11-point Kd curves were determined for hits identified during the initial screen.

MLK3 = MLK3 (Homo sapiens (Human), UniProt Q16584); experiment: KINOMEscan competitive binding assay; details: 10 uM
FGFR2 = FGFR2 (Homo sapiens (Human), UniProt P21802); experiment: KINOMEscan competitive binding assay; details: 10 uM
Description: as §3

PRKD1 = PRKD1 (Homo sapiens (Human), UniProt Q15139); experiment: KINOMEscan competitive binding assay; details: 10 uM
MDA-MB231 = experiment: Tumor cell viability; assay type: cell-based, human; details: Breast AC MDA-MB231, B-RAF/Ras
Description: as §1

CSF1R [4] = target: T1, CSF1R; experiment: KINOMEscan competitive binding assay; details: 10 uM
Description: as §3

[5] = Treatment of fibrosis in patients with interstitial lung disease; assay type: in vivo, human; details: 50 mg/Kg/day, oral, 6 months
Description: This can include patients referred for presumed pulmonary fibrosis/interstitial pneumonitis (IPF, UIP, NSIP), sarcoidosis, hypersensitivity pneumonitis, cryptogenic organising pneumonia, drug-induced, or other idiopathic ILDs. The patients are evaluated after 6 months of treatment.

ABL1 = ABL1 (Homo sapiens (Human), UniProt P00519); experiment: KINOMEscan competitive binding assay; details: 10 uM
Description: as §3

B-RAF/C-RAF dimerization = B-RAF/C-RAF dimerization (Homo sapiens (Human), UniProt P15056); experiment: B-RAF/C-RAF dimerization in XPA-1 pancreatic cancer cells (immunoprecipitation/Western); assay type: cell-based; details: XPA-1 cells

For Nc1cc(Oc2ccc(-c3nnc(Nc4cccc(C(F)(F)F)c4)[nH]3)cc2)ncn1 [Compound 3], which “% Inhibition at 10 μM” value (CSF1R [1]) is on record?
Its value is 79%.

And the “% Inhibition at 10 μM” value (BRAF [2])?
Its value is 17%.

For CSc1nc(N)cc(Oc2ccc(-c3nnc(Nc4cccc(C(F)(F)F)c4)[nH]3)cc2)n1 [Compound 6], which percent stenosis (neointimal hyperplasia; 100 mg/kg, qd, oral gavage, 14 days) is on record?
Its percent stenosis is “greatly reduced”.

And the “PDGFRβ activation in injured arteries” value (neointimal hyperplasia; 4 h after the final dose)?
Its value is “inhibited PDGFRβ activation”.

What about the EC50 (CT26) of the same compound?
Its EC50 is 710 nM.

And the EC50 (A431)?
Its EC50 is 430 nM.

What about the EC50 (M21L) of the same compound?
The EC50 was 420 nM.

What about the EC50 (M21) of the same compound?
The EC50 was 450 nM.

And the “% Control” value (CDC2L1)?
The value was 70%.

What about the “% Inhibition at 10 μM” value (CSF1R [1]) of the same compound?
Its value is 23%.

And the “PAK-mediated phosphorylation on MEK S298” value (MEK S298)?
The value was “did not block”.

And the “% Control” value (BRAF [3])?
Its value is 91%.

And the GI50 (NCI60 panel)?
Its GI50 is 490 nM.

And the “% Control” value (VEGFR2)?
Its value is 80%.

And the “% Control” value (MLK3)?
The value was 96%.

And the “% Control” value (FGFR2)?
Its value is 100%.

And the “% Control” value (PRKD1)?
The value was 100%.

What about the “% Inhibition at 10 μM” value (BRAF [2]) of the same compound?
Its value is −1%.

And the EC50 (MDA-MB231)?
Its EC50 is 480 nM.

What about the “% Control” value (CSF1R [4]) of the same compound?
Its value is 51%.

And the “outcome of fibrosis treatment versus placebo” value [5]?
The value was “improvement over placebo group”.

And the “% Control” value (ABL1)?
Its value is 100%.

And the “RAF dimerization and pS338-CRAF” value (B-RAF/C-RAF dimerization)?
The value was “prevent RAF dimerization and pS338-CRAF”.

Which EC50 (MDA-MB231; Homo sapiens, MDA-MB-231) does the source give for CNC(=O)c1cc(Oc2ccc(NC(=O)Nc3ccc(Cl)c(C(F)(F)F)c3)cc2)ccn1 [sorafenib, reference compound] here?
The EC50 was greater than 10000 nM.

Source: patent US9260417B2, “Therapeutic methods and compositions involving allosteric kinase inhibition” (AMITECH THERAPEUTIC SOLUTIONS, INC., priority 2010, dated 2016)
